{
  "source": "a melting point compilation (Tetko et al.; mined from patent text by program, amines drawn as free bases though some values may be those of a salt)",
  "data": [
    {"units": {"melting point": "°C"}, "values": [
      {"smiles": "O=c1[nH]c2cc(F)c(F)cc2n2ccnc12", "melting point": "> 300"},
      {"smiles": "Cc1cc(CC2(Cc3ccncc3)c3cccnc3-c3ncccc32)cc(C)n1", "melting point": "> 240"},
      {"smiles": "NC(=O)c1c(Cl)c(-c2ccccc2)n2c1CN(S(=O)(=O)c1ccc(Cl)c(Cl)c1)CC2", "melting point": "192 to 193"},
      {"smiles": "CC1CCc2cc(N3C[C@H](CO)OC3=O)ccc2N1C(=O)OCc1ccccc1", "note": "(stereo partly specified)", "melting point": "99 to 102"},
      {"smiles": "CCOCc1nc2cnc3cc(Br)cnc3c2n1CC(C)C", "melting point": "115 to 116"},
      {"smiles": "CCc1cccc2[nH]c(C(=O)O)cc(=O)c12", "melting point": "272 to 273"},
      {"smiles": "O=C(O)c1cn(-c2cc([N+](=O)[O-])c(F)cc2F)c2cc(F)c(F)cc2c1=O", "melting point": "> 270"},
      {"smiles": "COc1ccc(N2CCN(c3ccc(N(C)C4=NC(C)(C)CS4)cc3)CC2)cc1", "melting point": 167},
      {"smiles": "C=C(CCCl)C(=O)c1ccc(OC)c(Cl)c1Cl", "melting point": "58 to 60"},
      {"smiles": "O=C1NC(=O)C(=Cc2ccc(C(=O)CCc3ccccc3)nc2)S1", "melting point": "> 250"},
      {"smiles": "CCc1nc2c(C)cc(C)nc2n1Cc1ccc(C(CC(=O)NS(=O)(=O)c2ccccc2)c2ccccc2)cc1", "note": "(stereo unspecified)", "melting point": "81 to 86"},
      {"smiles": "CCOCCC(=O)OC1(C(=O)CO)CCC2C3CCC4=CC(=O)CCC4(C)C3C(O)CC21C", "note": "(stereo unspecified)", "melting point": 149},
      {"smiles": "FC(F)(F)c1cccc(-c2ccnc3nccn23)c1", "melting point": "160 to 163"},
      {"smiles": "CC(C)(C)OC(=O)NN(Cc1ccccc1)C[C@H](O)[C@H](Cc1ccccc1)NC(=O)OCc1ccccc1", "melting point": "142 to 143"},
      {"smiles": "O=C(Nc1cccc(S(=O)(=O)NCc2ccccn2)c1)c1cnn2c(C(F)(F)F)cc(-c3ccc(C(F)(F)F)cc3)nc12", "melting point": 229},
      {"smiles": "O=c1c2c(Cl)cccc2nc2sc(Br)cn12", "melting point": "174 to 178"},
      {"smiles": "Cc1cc(Cc2ccc(C(=O)O)cc2)n(C)c1C(=O)c1ccc(Cl)cc1", "melting point": "245 to 247"},
      {"smiles": "OCCNC(=S)NC1CCc2ccccc2C1", "note": "(stereo unspecified)", "melting point": "89 to 91"},
      {"smiles": "CCOC(=O)C1=C(O)[C@H](CC2CCCCC2)NC1=O", "melting point": "176 to 180"},
      {"smiles": "O=[N+]([O-])c1ccc(-c2ccc(-c3ccc([N+](=O)[O-])cc3Cl)o2)c(Cl)c1", "melting point": "247 to 248"},
      {"smiles": "CC(C)(O)CNc1c([N+](=O)[O-])cnc2cccnc12", "melting point": "184 to 186"},
      {"smiles": "O=C(N[C@H]1CC[C@H](CCN2CCN(c3nccc4c3CCO4)CC2)CC1)c1ccc(F)cc1", "melting point": 210},
      {"smiles": "CNC(=O)c1cc(-c2ccc(OC)c(Cl)c2)nn(CC(C)C)c1=O", "melting point": "182 to 184"},
      {"smiles": "N#Cc1c(C(F)(F)F)cc(-c2ccc(C(F)(F)F)cc2)[nH]c1=O", "melting point": 197},
      {"smiles": "CC(C)(C)OC(=O)CNS(=O)(=O)c1ccc(N2CCC(NC[C@H](O)c3ccc(O)c(NS(C)(=O)=O)c3)CC2)cc1", "melting point": "113 to 115"},
      {"smiles": "CC1(C)CC(=O)C(C(=S)Nc2ccc(Cl)c(Cl)c2)C(=O)C1", "melting point": "113 to 116"},
      {"smiles": "N#Cc1cnc2ccc(N)cc2c1Nc1ccc(F)c(Br)c1", "melting point": "210 to 212"},
      {"smiles": "CC1CCCCC1N(Cc1ccc(C(=O)NC(C)(C)C(=O)O)cc1)S(=O)(=O)c1ccc(C(F)(F)F)nc1", "note": "(stereo unspecified)", "melting point": "131 to 132"},
      {"smiles": "CCCCCCC(=O)NCC(=O)O", "melting point": "98 to 100"},
      {"smiles": "CC(=O)C1CC2=C(CO1)C(=O)c1ccc(O)cc1C2=O", "note": "(stereo unspecified)", "melting point": "169 to 170"},
      {"smiles": "CS(=O)(=O)c1ccc(/C(=C\\C2CCCC2)C(=O)O)cc1", "melting point": "200 to 202"},
      {"smiles": "CC(=O)C1Cc2cc(CCN3CCC(c4noc5cc(F)ccc45)CC3)sc2CN1", "note": "(stereo unspecified)", "melting point": "170 to 172"},
      {"smiles": "COC(=O)CCCCC(=O)N(O)c1ccc2ccccc2c1O", "melting point": "111 to 113"},
      {"smiles": "Cc1cnc(N2C(=O)C(O)=C(C(=O)c3ccc(C(C)C)cc3)C2c2ccc(OC(F)(F)F)cc2)cn1", "note": "(stereo unspecified)", "melting point": "266 to 268"},
      {"smiles": "CCOC(=O)c1c(OC)nc2c(C)cc(C)cc2c1-c1ccccc1Cl", "melting point": "135 to 136"},
      {"smiles": "CCOC(=O)c1nccc(Oc2ccc3c(C(=O)O)cccc3c2)n1", "melting point": "214 to 217"},
      {"smiles": "C=CCOc1cc([N+](=O)[O-])ccc1OCC1CO1", "note": "(stereo unspecified)", "melting point": 64},
      {"smiles": "CN(C(=O)OC(C)(C)C)c1cccc(-c2nc(=O)c3ccccc3s2)n1", "melting point": 196},
      {"smiles": "CCc1ccc(C=Nc2ccc(C#N)cc2)cc1", "melting point": "76.2 to 77"},
      {"smiles": "Cc1cc(CC(=O)O)[nH]c1C(=O)c1ccccc1", "melting point": "167 to 168"},
      {"smiles": "Cn1cc(-c2ccc(Cl)cc2)c(=O)c(-c2cccc(C(F)(F)F)c2)c1", "melting point": "153 to 155"},
      {"smiles": "Oc1c2c(nn1-c1ccccn1)CCc1cc(-c3ccc4c(c3)OCO4)ccc1-2", "melting point": "205 to 206"},
      {"smiles": "COc1ccc2c(c1)CCC(=O)NC2c1ccccc1", "note": "(stereo unspecified)", "melting point": "185 to 186"},
      {"smiles": "COc1cc(OCC(=O)N2CCOCC2)c(C=CC(=O)c2ccc(C(=O)O)cc2)cc1-c1cccs1", "melting point": "231 to 233"},
      {"smiles": "Cc1c2c(c(C)c3c1NC(C)(C)C3)OC(C)(CN1CCC(N(C)c3nc4ccccc4s3)CC1)C2", "note": "(stereo unspecified)", "melting point": "147 to 150"},
      {"smiles": "CCOC(=O)c1c(C)c(C(=O)CC#N)n(C)c1C", "melting point": 105},
      {"smiles": "Cc1cc(C)c2c(c1Br)CCC2=O", "melting point": 103},
      {"smiles": "CN1CC[C@@H](c2c(O)cc(O)c3c(=O)cc(-c4ccc(C#N)cc4Cl)oc23)[C@@H]1CO", "melting point": "237 to 239"},
      {"smiles": "COc1ccc(N2CCN(CCC3OCCc4c(Br)cccc43)CC2)cc1", "note": "(stereo unspecified)", "melting point": "105 to 106"},
      {"smiles": "CO[C@@H]1CC[C@@H](NC(N)=O)c2ccccc21", "note": "(relative stereo)", "melting point": "159 to 165"},
      {"smiles": "CNC(=O)N(O)CCNC(=O)c1cccc(Oc2ccc(Cl)cc2)c1", "melting point": "157 to 158"},
      {"smiles": "CN(C)Cc1cccc(-c2csc(N=C(N)N)n2)n1", "melting point": "160 to 162"},
      {"smiles": "COC(=O)CN1C(=O)c2ccc3ccccc3c2S1(=O)=O", "melting point": 188},
      {"smiles": "Fc1cc(Cl)ccc1-n1nc2c(c1Cl)CSCC2", "melting point": "97 to 99"},
      {"smiles": "CC1C(=O)N(c2ccccc2O)Sc2ccccc21", "note": "(stereo unspecified)", "melting point": "162 to 164"},
      {"smiles": "Cn1c(C(F)(F)F)cc(=O)n(-c2cc(OCc3ccc(Cl)cc3Cl)c(Cl)cc2F)c1=O", "melting point": "112 to 120"},
      {"smiles": "COc1cc(C(=N)NO)ccc1-c1cc(-c2ccc(C(=N)NO)cc2OC)on1", "melting point": "203 to 204"},
      {"smiles": "CS(=O)(=O)Nc1ccc(OCCCI)cc1", "melting point": "109 to 111"},
      {"smiles": "O=C1Nc2cc(-c3ccccc3)ccc2OC1CCO", "note": "(stereo unspecified)", "melting point": "170 to 171"},
      {"smiles": "CC(=O)Nc1ccc(NCCO)c([N+](=O)[O-])c1", "melting point": 186},
      {"smiles": "CCc1ccc2c(c1)[C@@H](N1CCCC1=O)[C@H](O)C(C)(C)O2", "note": "(relative stereo)", "melting point": "154 to 163"},
      {"smiles": "CCCC1CCC(C)C(CCC2CC(O)CC(=O)O2)C1COC(=O)C(C)(C)CC", "note": "(stereo unspecified)", "melting point": "128 to 130"},
      {"smiles": "CCC(=O)NS(=O)(=O)c1ccc2c3c(cc([N+](=O)[O-])c2c1)NCC3CCl", "note": "(stereo unspecified)", "melting point": "173 to 177"},
      {"smiles": "CNc1cccc2c1C(=O)c1ccccc1C2=O", "melting point": 172},
      {"smiles": "CCc1cc(OCc2ccccc2)c2c(Cl)cccc2n1", "melting point": "78 to 80"},
      {"smiles": "Nc1nc2ccc(S(=O)(=O)n3c(CCC(=O)O)cc4cc(Cl)ccc43)cc2o1", "melting point": "242 to 249"},
      {"smiles": "CCOC(=O)Cn1cccc1-c1nc(-c2ccc(OC)cc2)c(-c2ccc(OC)cc2)s1", "melting point": "132 to 136"},
      {"smiles": "CCCCCCCCCC(=O)Nc1ccc(S(=O)(=O)Nc2nnc(CC)s2)cc1", "melting point": "121 to 122"},
      {"smiles": "N#CCCNC(=O)c1cccc(-c2ccc3c(c2)N(c2cc(Cl)cc(Cl)c2)CC3)c1", "melting point": "196 to 197"},
      {"smiles": "CCOP(=O)(OCC)c1nc(N2CCCCC2)nc(N2CCCCC2)n1", "melting point": "103 to 105"},
      {"smiles": "CCC(=O)CN1C(=O)C2(COc3cc4c(cc32)OCCO4)c2ccccc21", "note": "(stereo unspecified)", "melting point": "182 to 183"}
    ]}
  ]
}
